For two compounds, dissolution rate results are on record in patent JP2015020973A, “クロマン化合物塩酸塩の結晶形態及びその製造法” (Nissan Chemical Corp, priority 2013, dated 2015).

Each structure is given as a SMILES string.

Data set [1] is described as follows: Test Example 2: dissolution test, JP Pharmacopoeia dissolution test 2nd fluid (pH 6.8), paddle method. To be noted: dissolution test 2nd fluid pH 6.8, 37 °C, paddle 100 rpm, after 120 min. The format is physicochemical.
Data set [2] in a line: Test Example 1: dissolution test, JP Pharmacopoeia dissolution test 1st fluid (pH 1.2), paddle method. The format is physicochemical. To be noted: dissolution test 1st fluid pH 1.2, 37 °C, paddle 100 rpm, at 60 min.

With `COc1cc2c(cc1NS(C)(=O)=O)OC(C)(C)[C@H](O)[C@H]2NCCc1ccccc1.Cl` (relative stereo) [A形結晶, N−{(3R*,4S*)−3−ヒドロキシ−6−メトキシ−2,2−ジメチル−4−(フェネチルアミノ)クロマン−7−イル}メタンスルホンアミド塩酸塩], the values for the dissolution rate in data set [1] and in data set [2] were about 80% and 90%, respectively.
The matching figures for `COc1cc2c(cc1NS(C)(=O)=O)OC(C)(C)[C@H](O)[C@H]2NCCc1ccccc1` (relative stereo) [フリー体, N−{(3R*,4S*)−3−ヒドロキシ−6−メトキシ−2,2−ジメチル−4−(フェネチルアミノ)クロマン−7−イル}メタンスルホンアミド]: about 65% and 90%.
